Results reported in publication PMC4893628, “Chalcone-based Selective Inhibitors of a C4 Plant Key Enzyme as Novel Potential Herbicides” (Scientific Reports, 2016).
Read-outs that look alike come from different tables or passages of the source.

What was measured:
[1] = tested on: Bacillus subtilis 168; experiment: Bacterial growth in microscale cultivation, B. subtilis; type: cell-based; details: for activity at 4 µM / activity at 40 µM / activity at 120 µM / activity at 400 µM / Lag Phase / activity at 55 µM / activity at 110 µM / activity at 550 µM: relative to control; for Influence on bacterial growth: highest concentration tested (10× IC50) if not stated otherwise
Summary of the method: (§1)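 Inhibitors in DMSO were added to the medium, at a maximum of 400 μM for trans-chalcone and 100 μM for 2'-hydroxychalcone. Cultures were seeded at OD600 0.5, or 0.25 for B. subtilis, and growth was followed as 620 nm backscatter in a BioLector at 1200 rpm. Final backscatter, growth rate and lag phase were compared with DMSO controls.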

[2] = target: T1, F. trinervia PEPC (Flaveria trinervia, UniProt P30694); experiment: biochemical; type: biochemical; details: for IC50: C4 PEPC, read-out: IC50 F. trinervia PEPC
T1 construct: the full-length ppcA gene of PEPC from F. trinervia (EMBL-Bank X61304); made in house; host or cells: Escherichia coli BL21(DE3)
T1 sequence (P30694 1-966): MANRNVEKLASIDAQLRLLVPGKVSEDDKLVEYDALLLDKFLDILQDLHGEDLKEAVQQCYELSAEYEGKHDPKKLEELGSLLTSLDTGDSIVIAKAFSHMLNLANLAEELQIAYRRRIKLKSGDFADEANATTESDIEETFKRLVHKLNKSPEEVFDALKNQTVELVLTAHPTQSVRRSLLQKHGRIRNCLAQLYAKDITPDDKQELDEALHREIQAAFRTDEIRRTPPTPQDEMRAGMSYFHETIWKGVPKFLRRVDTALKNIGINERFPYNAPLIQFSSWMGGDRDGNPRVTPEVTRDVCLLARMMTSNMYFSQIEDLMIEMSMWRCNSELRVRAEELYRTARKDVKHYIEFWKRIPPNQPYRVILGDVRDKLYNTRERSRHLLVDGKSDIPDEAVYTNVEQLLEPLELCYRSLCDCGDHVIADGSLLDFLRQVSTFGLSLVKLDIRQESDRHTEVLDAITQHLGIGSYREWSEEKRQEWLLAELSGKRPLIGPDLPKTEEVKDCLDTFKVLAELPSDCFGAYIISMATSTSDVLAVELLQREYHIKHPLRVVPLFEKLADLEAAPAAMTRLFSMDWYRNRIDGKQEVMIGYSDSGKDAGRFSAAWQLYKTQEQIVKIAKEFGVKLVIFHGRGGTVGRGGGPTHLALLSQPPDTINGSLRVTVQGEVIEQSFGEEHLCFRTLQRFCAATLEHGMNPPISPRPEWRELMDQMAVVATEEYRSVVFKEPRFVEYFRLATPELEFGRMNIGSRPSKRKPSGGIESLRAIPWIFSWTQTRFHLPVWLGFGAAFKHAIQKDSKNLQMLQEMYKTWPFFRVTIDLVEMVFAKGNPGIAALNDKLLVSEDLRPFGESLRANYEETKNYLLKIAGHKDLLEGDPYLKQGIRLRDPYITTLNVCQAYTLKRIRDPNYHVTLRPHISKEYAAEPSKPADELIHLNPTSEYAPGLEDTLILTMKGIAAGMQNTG

[3] = tested on: Pseudomonas putida KT2440; experiment: Bacterial growth in microscale cultivation, P. putida; type: cell-based; details: relative to control; for activity at 4 µM / activity at 40 µM / activity at 400 µM / activity at 55 µM / activity at 550 µM: Pseudomonas putida
Summary of the method: as §1

SMILES: O=C(/C=C/c1ccc(O)cc1)c1ccccc1O [Compound 3, 2′,4-Dihydroxychalcone]
- activity at 4 µM ([1]; Bacillus subtilis, 168, complex medium, 4 µM, read-out: Final Backscatter): 95.2%
- activity at 4 µM ([1]; Bacillus subtilis, 168, complex medium, 4 µM, read-out: Growth rate): 99.5%
- activity at 40 µM ([1]; Bacillus subtilis, 168, complex medium, 40 µM, read-out: Final Backscatter): 97.1%
- activity at 40 µM ([1]; Bacillus subtilis, 168, complex medium, 40 µM, read-out: Growth rate): 108%
- activity at 120 µM ([1]; Bacillus subtilis, 168, complex medium, 120 µM, read-out: Final Backscatter): 102%
- activity at 120 µM ([1]; Bacillus subtilis, 168, complex medium, 120 µM, read-out: Growth rate): 114%
- activity at 400 µM ([1]; Bacillus subtilis, 168, complex medium, 400 µM, read-out: Final Backscatter): 91.6%
- activity at 400 µM ([1]; Bacillus subtilis, 168, complex medium, 400 µM, read-out: Growth rate): 92.8%
- activity at 4 µM ([1]; Bacillus subtilis, 168, minimal medium, 4 µM, read-out: Final Backscatter): 101%
- activity at 4 µM ([1]; Bacillus subtilis, 168, minimal medium, 4 µM, read-out: Growth rate): 130%
- activity at 40 µM ([1]; Bacillus subtilis, 168, minimal medium, 40 µM, read-out: Final Backscatter): 99.1%
- activity at 40 µM ([1]; Bacillus subtilis, 168, minimal medium, 40 µM, read-out: Growth rate): 119%
- activity at 120 µM ([1]; Bacillus subtilis, 168, minimal medium, 120 µM, read-out: Final Backscatter): 100%
- activity at 120 µM ([1]; Bacillus subtilis, 168, minimal medium, 120 µM, read-out: Growth rate): 115%
- activity at 400 µM ([1]; Bacillus subtilis, 168, minimal medium, 400 µM, read-out: Final Backscatter): 102%
- activity at 400 µM ([1]; Bacillus subtilis, 168, minimal medium, 400 µM, read-out: Growth rate): 113%
- Lag Phase ([1]; complex medium, 4 µM): 105,7%
- Lag Phase ([1]; complex medium, 40 µM): 105,7%
- Lag Phase ([1]; complex medium, 120 µM): 125,5%
- Lag Phase ([1]; complex medium, 400 µM): 151,3%
- Lag Phase ([1]; minimal medium, 4 µM): 99,0%
- Lag Phase ([1]; minimal medium, 40 µM): 101,0%
- Lag Phase ([1]; minimal medium, 120 µM): 111,3%
- Lag Phase ([1]; minimal medium, 400 µM): 151,4%
- Selectivity C4/C3 ([2]; C4 PEPC over C3 isoform): 1.6 fold
- IC50 [2]: 39.8 ± 4.2 µM
- activity at 4 µM ([3]; KT2440, complex medium, 4 µM, read-out: Final Backscatter): 99.6%
- activity at 4 µM ([3]; KT2440, complex medium, 4 µM, read-out: Growth rate): 103%
- activity at 40 µM ([3]; KT2440, complex medium, 40 µM, read-out: Final Backscatter): 103%
- activity at 40 µM ([3]; KT2440, complex medium, 40 µM, read-out: Growth rate): 106%
- activity at 400 µM ([3]; KT2440, complex medium, 400 µM, read-out: Final Backscatter): 99.5%
- activity at 400 µM ([3]; KT2440, complex medium, 400 µM, read-out: Growth rate): 108%
- activity at 4 µM ([3]; KT2440, minimal medium, 4 µM, read-out: Final Backscatter): 97.4%
- activity at 4 µM ([3]; KT2440, minimal medium, 4 µM, read-out: Growth rate): 95.3%
- activity at 40 µM ([3]; KT2440, minimal medium, 40 µM, read-out: Final Backscatter): 101%
- activity at 40 µM ([3]; KT2440, minimal medium, 40 µM, read-out: Growth rate): 97.1%
- activity at 400 µM ([3]; KT2440, minimal medium, 400 µM, read-out: Final Backscatter): 110%
- activity at 400 µM ([3]; KT2440, minimal medium, 400 µM, read-out: Growth rate): 106%
- Lag Phase ([3]; complex medium, 4 µM): 97,7%
- Lag Phase ([3]; complex medium, 40 µM): 98,5%
- Lag Phase ([3]; complex medium, 400 µM): 98,5%
- Lag Phase ([3]; minimal medium, 4 µM): 102,8%
- Lag Phase ([3]; minimal medium, 40 µM): 101,6%
- Lag Phase ([3]; minimal medium, 400 µM): 103,2%

SMILES: O=C(/C=C/c1ccccc1)c1cc(O)ccc1O [Compound 5, 2′,5′-Dihydroxychalcone]
- growth ([1]; 550 μM, minimal media): abolished growth
- activity at 55 µM ([1]; Bacillus subtilis, 168, complex medium, 55 µM, read-out: Final Backscatter): 96.2%
- activity at 55 µM ([1]; Bacillus subtilis, 168, complex medium, 55 µM, read-out: Growth rate): 108%
- activity at 110 µM ([1]; Bacillus subtilis, 168, complex medium, 110 µM, read-out: Final Backscatter): 98%
- activity at 110 µM ([1]; Bacillus subtilis, 168, complex medium, 110 µM, read-out: Growth rate): 108%
- activity at 550 µM ([1]; Bacillus subtilis, 168, complex medium, 550 µM, read-out: Final Backscatter): 76.3%
- activity at 55 µM ([1]; Bacillus subtilis, 168, minimal medium, 55 µM, read-out: Final Backscatter): 96.4%
- activity at 55 µM ([1]; Bacillus subtilis, 168, minimal medium, 55 µM, read-out: Growth rate): 107%
- activity at 110 µM ([1]; Bacillus subtilis, 168, minimal medium, 110 µM, read-out: Final Backscatter): 102%
- activity at 110 µM ([1]; Bacillus subtilis, 168, minimal medium, 110 µM, read-out: Growth rate): 110%
- activity at 550 µM ([1]; Bacillus subtilis, 168, minimal medium, 550 µM, read-out: Final Backscatter): 30.5%
- Influence on bacterial growth ([1]; Complex medium): fbs↓ lag↑
- Influence on bacterial growth ([1]; Minimal medium): no growth (10× IC50)
- Lag Phase ([1]; complex medium, 55 µM): 102,3%
- Lag Phase ([1]; complex medium, 110 µM): 109,3%
- Lag Phase ([1]; complex medium, 550 µM): 177,1%
- Lag Phase ([1]; minimal medium, 55 µM): 103,5%
- Lag Phase ([1]; minimal medium, 110 µM): 108,5%
- IC50 [2]: 42.1 ± 11.3 µM
- activity at 55 µM ([3]; KT2440, complex medium, 55 µM, read-out: Final Backscatter): 98.5%
- activity at 55 µM ([3]; KT2440, complex medium, 55 µM, read-out: Growth rate): 105%
- activity at 550 µM ([3]; KT2440, complex medium, 550 µM, read-out: Final Backscatter): 94.4%
- activity at 550 µM ([3]; KT2440, complex medium, 550 µM, read-out: Growth rate): 118%
- activity at 55 µM ([3]; KT2440, minimal medium, 55 µM, read-out: Final Backscatter): 95.5%
- activity at 55 µM ([3]; KT2440, minimal medium, 55 µM, read-out: Growth rate): 99.4%
- activity at 550 µM ([3]; KT2440, minimal medium, 550 µM, read-out: Final Backscatter): 96.7%
- activity at 550 µM ([3]; KT2440, minimal medium, 550 µM, read-out: Growth rate): 101%
- Lag Phase ([3]; complex medium, 55 µM): 99,1%
- Lag Phase ([3]; complex medium, 550 µM): 105,0%
- Lag Phase ([3]; minimal medium, 55 µM): 101,0%
- Lag Phase ([3]; minimal medium, 550 µM): 98,0%
